# Results taken from US7135556B2, “NPC1L1 (NPC3) and methods of use thereof” (Schering Corporation, priority 2002, dated 2006).
# Tests used:
# SR-B1 = molecular target: T1, SR-B1 (Mus musculus, UniProt Q61009); experiment: Cholesterol uptake assay (Example 4), [3H]-cholesterol, CHO cells expressing SR-B1; assay type: cell-based; settings: 10 μM ezetimibe
# T1 construct: expressed in transfected cells; host or cells: CHO cells
# T1 sequence (Q61009 1-509): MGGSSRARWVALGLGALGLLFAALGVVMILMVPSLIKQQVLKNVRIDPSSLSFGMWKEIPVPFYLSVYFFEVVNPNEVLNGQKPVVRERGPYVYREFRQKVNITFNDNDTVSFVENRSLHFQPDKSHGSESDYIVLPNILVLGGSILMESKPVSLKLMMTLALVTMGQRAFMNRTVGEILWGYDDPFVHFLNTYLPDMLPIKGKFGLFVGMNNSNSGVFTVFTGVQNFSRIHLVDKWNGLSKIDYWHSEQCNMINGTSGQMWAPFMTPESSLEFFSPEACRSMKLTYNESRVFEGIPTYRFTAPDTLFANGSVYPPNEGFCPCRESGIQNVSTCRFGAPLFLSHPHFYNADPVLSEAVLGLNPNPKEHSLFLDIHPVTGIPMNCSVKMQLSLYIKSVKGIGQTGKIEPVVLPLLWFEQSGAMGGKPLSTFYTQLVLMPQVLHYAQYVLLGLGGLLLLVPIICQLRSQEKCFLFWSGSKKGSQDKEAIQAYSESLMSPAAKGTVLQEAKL
# Excerpt: The cells were harvested and the lipids were organically extracted. The extracted lipids were spotted on thin-layer chromatography (TLC) plates and resolved within an organic vapor phase. The free cholesterol bands for each assay were isolated and counted in a scintillation counter.
# cholesterol absorption = experiment: Cholesterol absorption in mice, dual fecal isotope ratio method (cholesterol/sitostanol) (Example 24); assay type: in vivo, mouse; settings: chow diet
# Protocol: Cholesterol absorption in the mice was determined by the dual fecal isotope ratio method as described by Altmann et al. (Biochim. Biophys. Acta. 1580(1):77–93 (2002)). […] Mice were gavaged with ^14C-cholesterol (1 μCi, 0.1 mg unlabeled cholesterol) and ^3H-sitostanol (2 μCi) in 0.1 ml corn oil. Feces were collected for 2 days and fecal ^14C-cholesterol and ^3H-sitostanol levels were determined by combustion in a Packard Oxidizer. The fraction of cholesterol absorbed, as evaluated by the fecal dual isotope technique, was similar in wild type (+/+) and heterozygous mice (+/−) fed a chow diet (heterozygous mice absorbed 46±5% and age matched wild type mice absorbed 51±3% of the dose of ^14C-cholesterol).
# rat NPC1L1 = molecular target: T2, rat NPC1L1 (Rattus norvegicus, UniProt Q6T3U3); experiment: FACS analysis of BODIPY-labeled ezetimibe binding, rNPC1L1/CHO; settings: 100 nM BODIPY-labeled ezetimibe
# T2 construct: using clone specific PCR primers to generate the ORF flanked by appropriate restriction sites; expressed in transfected cells
# Protocol: (§1) “BODIPY” is a fluorescent group which was used to detect the BODIPY-ezetimibe. Chinese hamster ovary (CHO) cells were transiently transfected with rat NPC1L1 DNA (rNPC1L1/CHO), mouse NPC1L1 DNA (mNPC1L1/CHO), mouse SR-B1 DNA (mSRBI/CHO) or EGFP DNA (EGFP/CHO). EGFP is enhanced green fluorescent protein which was used as a positive control. […] Control experiments were also performed wherein the cells were not labeled with the BODIPY-ezetimibe and wherein untransfected CHO cells were labeled with the BODIPY-ezetimibe.
# mouse NPC1L1 = molecular target: T3, mouse NPC1L1 (Mus musculus, UniProt Q6T3U4); experiment: FACS analysis of BODIPY-labeled ezetimibe binding, mNPC1L1/CHO; settings: 100 nM BODIPY-labeled ezetimibe
# T3 construct: using clone specific PCR primers to generate the ORF flanked by appropriate restriction sites; expressed in transfected cells
# Protocol: as §1
# mouse SR-B1 = molecular target: T4, mouse SR-B1 (Mus musculus, UniProt Q61009); experiment: FACS analysis of BODIPY-labeled ezetimibe binding, mSRBI/CHO; settings: 100 nM BODIPY-labeled ezetimibe
# T4 construct: expressed in transfected cells
# T4 sequence (Q61009 1-509): T1 sequence (Q61009 1-509)
# Protocol: as §1
# untransfected CHO cells = experiment: FACS analysis of BODIPY-labeled ezetimibe binding, untransfected CHO cells; parameters: species or system chinese hamster; settings: 100 nM BODIPY-labeled ezetimibe
# Protocol: as §1
Compound,[3H]-cholesterol uptake (SR-B1),"fraction of cholesterol absorbed (of the dose of 14C-cholesterol) (cholesterol absorption; NPC1L1 knockout mice (−/−), ezetimibe 10 mg/kg/day)","fraction of cholesterol absorbed (of the dose of 14C-cholesterol) (cholesterol absorption; wild type mice, ezetimibe 10 mg/kg daily)",staining of cells (FACS) (rat NPC1L1),staining of cells (FACS) (mouse NPC1L1),staining of cells (FACS) (mouse SR-B1),staining of cells (FACS) (untransfected CHO cells)
O=C1[C@H](CC[C@H](O)c2ccc(F)cc2)[C@@H](c2ccc(O)cc2)N1c1ccc(F)cc1 [ezetimibe],inhibited,16.2±0.6%,16.1±0.3%,–,–,–,–
"N-(4,4-difluoro-5.7-dimethyl-4-bora-3a.4a-diaza-s-indacene-3-vl)methyl iodoacetamide/ezetimibe [BODIPY-ezetimibe]",–,–,–,No staining,No staining,detected,No staining
